The values that follow come from article PMC9487190 (Parasitology research, 2022).

Test [1] has as its system human cystic echinococcosis (CE). Particulars: ref Gottstein et al., 2015; Hemphill et al., 2014; cited from earlier work.
In test [2] the target is T1, EgSERT (Echinococcus granulosus, UniProt W6UF91). The format is cell-based. The following applies: 50 nM radiolabeled substrate, 10 min, room temperature, COS-7 cells.
The target in test [3] is T1, EgSERT. The format is cell-based. The following applies: at around 1 μM.
The subject of another test is S. mansoni miracidia. The following applies: exogenously added, 50 μM; ref Taft et al., 2010; cited from earlier work.
Test [4] concerns protoscoleces of E. granulosus. Particulars: 100 μM; ref Camicia et al., 2013; Herz and Brehm, 2021; cited from earlier work.
Test [5] relates to E. multilocularis metacestode vesicles and primary cells. Particulars: ref Herz and Brehm (2021), cited from earlier work.
Test [6] addresses T1, EgSERT. The format is cell-based. The following applies: COS-7 cells, 15 nM – 10 μM serotonin, 10 min.

Molecules are shown by their SMILES.

Take `CCCSc1ccc2nc(NC(=O)OC)[nH]c2c1` [ABZ, albendazole]: in test [1], the “share of CE cases in which treatment is ineffective” value is listed as ~ 40%.
With `NCCCC(=O)O` [GABA], the “transport of radiolabeled substrate by EgSERT compared with background” value (from here on “transport … compared with background”) at EgSERT [2] is listed as “does not transport”.
Turning to `CN(C)CCCC1(c2ccc(F)cc2)OCc2cc(C#N)ccc21` (stereo not drawn) [citalopram], the “inhibition of serotonin transport by EgSERT” value at EgSERT [3] is on record as “almost complete inhibition”. In addition, the “effect on miracidial transformation rates” value in the test on S. mansoni miracidia is recorded as “detrimental effect”. Further, in test [4], the “effect on motility and development of protoscoleces” value is “strong inhibitory effect”.
As for `NCCc1ccc(O)c(O)c1` [dopamine], at EgSERT [2], the “transport … compared with background” value is “does not transport”.
For the compound `N[C@@H](CCC(=O)O)C(=O)O` [glutamate, glutamic acid], the “transport … compared with background” value on EgSERT [2] is on record as “does not transport”.
Still for that read-out and setting: the value for `NCC(=O)O` [glycine] was “does not transport”.
Turning to `Fc1ccc([C@@H]2CCNC[C@H]2COc2ccc3c(c2)OCO3)cc1` [paroxetine], the “metacestode vesicle damage and viability of primary cell culture” value in test [5] (100 μM) is “significant metacestode vesicle damage and cell viability reduction”.
`NCCc1c[nH]c2ccc(O)cc12` [serotonin, 5-hydroxytryptamine]: the “transport … compared with background” value on EgSERT [2] was “significantly higher accumulation”. The “metacestode vesicle formation and cell proliferation from primary cells” value in test [5] (exogenous, dose dependent) was “induces metacestode vesicle formation and cell proliferation”. The “Vmax of serotonin uptake” value at EgSERT [6] amounted to 615 ± 33 fmol/min/well.
